Reference: patent US11078496B2, “System for F-box hormone receptor regulated protein expression in mammalian cells” (ICAHN SCHOOL OF MEDICINE AT MOUNT SINAI, priority 2016, dated 2021)

Tested on: human ESCs
Experiment: Proliferation of H9 ESCs under coronatine (growth curves)
Type: cell-based
Conditions: H9 cells expressing pJAZ NLS-GFP-OsJAZ^33, 50 μM coronatine vs 0.1% DMSO, counted daily
Excerpt: FIG. 10A is a sequence alignment of O. sativa coronatine-degradable proteins (Tan et al., “Mechanism of Auxin Perception by the TIR1 Ubiquitin Ligase,” Nature 446:640-645 (2007), which is hereby incorporated by reference in its entirety) OsJAZ1 (NP_001064513.1; SEQ ID NO: 4), OsJAZ2 (NP_001049167.1; SEQ ID NO: 5), OsJAZ7 (NP_001063273.1; SEQ ID NO: 6), OsJAZ3 (NP_001049166.1; SEQ ID NO: 7), and A. thaliana AtJAZ1 (NP_564075; SEQ ID NO: 8). Degron sequences used in this study are highlighted and degron names indicated on the right. […] GFP level was analyzed by flow cytometry and % degradation was calculated as described in the Methods. […] FIG. 10F show GFP fluorescence histograms derived from flow cytometric analysis of HEK-293T cells infected with the indicated pJAZ versions, selected and treated with either 0.1% DMSO (“Con”) or 50 μM coronatine (“Cor”). Parental HEK-293T cells were analyzed as a control for background autofluorescence. […] FIG. 10H show the relative median fluorescence of HEK-293T cells infected with pJAZ 7 harboring either GFP-OsJAZ^33 or NLS-GFP-OsJAZ^33. Cells were selected and treated with increasing concentrations of coronatine (“Cor”) and analyzed after 24 hours (left panel), or with 50 μM coronatine for the indicated time periods (right panel). GFP fluorescence was analyzed by flow cytometry. […] Cells were counted daily and growth curves are plotted in FIG. 10K. […]

Q: Which effect on proliferation does the source give for `CC[C@H]1C=C(C(=O)N[C@@]2(C(=O)O)C[C@@H]2CC)[C@H]2CCC(=O)[C@H]2C1` [coronatine, Coronatine] here?
A: does not affect proliferation
